Measured values as given in PubChem BioAssay AID248 (DTP/NCI, 2004).
Values joined by “and” are separate entries in the source; they are usually repeats but may differ in a detail not shown here. Identical values can stand only once. Toxic doses and inconclusive results are not listed. Cut-off read from the data, not from the text of the source: active = T/C of 150% or more; inactive = T/C below 125%.

System: L1210 leukemia ip in BDF1 mice, survival T/C
Experiment: NCI In Vivo Anticancer Drug Screen. Data for tumor model L1210 Leukemia (intraperitoneal) in B6D2F1 (BDF1) mice
Details: endpoint: mean survival time, higher = longer survival
Procedure, shortened: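 Value reflects the ratio of survival in compound-treated mice to survival in vehicle-treated controls, with both groups carrying the same transplanted tumor.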

[1] = dose: 100.0 mg/kg/injection, schedule: Q01DX001 (ip), vehicle: Klucel (hydroxypropylcellulose) (HPC)
[2] = dose: 100.0 mg/kg/injection, schedule: Q01DX009 (ip), vehicle: Klucel (hydroxypropylcellulose) (HPC)
[3] = dose: 100.0 mg/kg/injection, schedule: Q04DX002 (ip), vehicle: Klucel (hydroxypropylcellulose) (HPC)
[4] = dose: 100.0 mg/kg/injection, schedule: Q04DX003 (ip), vehicle: Klucel (hydroxypropylcellulose) (HPC)
[5] = dose: 200.0 mg/kg/injection, schedule: Q01DX001 (ip), vehicle: Klucel (hydroxypropylcellulose) (HPC)
[6] = dose: 200.0 mg/kg/injection, schedule: Q01DX009 (ip), vehicle: Klucel (hydroxypropylcellulose) (HPC)
[7] = dose: 200.0 mg/kg/injection, schedule: Q04DX002 (ip), vehicle: Klucel (hydroxypropylcellulose) (HPC)
[8] = dose: 200.0 mg/kg/injection, schedule: Q04DX003 (ip), vehicle: Klucel (hydroxypropylcellulose) (HPC)
[9] = dose: 400.0 mg/kg/injection, schedule: Q04DX002 (ip), vehicle: Klucel (hydroxypropylcellulose) (HPC)
[10] = dose: 400.0 mg/kg/injection, schedule: Q04DX003 (ip), vehicle: Klucel (hydroxypropylcellulose) (HPC)
[11] = dose: 12.5 mg/kg/injection, schedule: Q01DX009 (ip), vehicle: Klucel (hydroxypropylcellulose) (HPC)
[12] = dose: 25.0 mg/kg/injection, schedule: Q01DX009 (ip), vehicle: Klucel (hydroxypropylcellulose) (HPC)
[13] = dose: 50.0 mg/kg/injection, schedule: Q01DX009 (ip), vehicle: Klucel (hydroxypropylcellulose) (HPC)
[14] = dose: 200.0 mg/kg/injection, schedule: Q04DX002 (ip), vehicle: saline with Tween-80
[15] = dose: 400.0 mg/kg/injection, schedule: Q01DX009 (ip), vehicle: Klucel (hydroxypropylcellulose) (HPC)

Measured: T/C

O=C(Nc1ncccc1[N+](=O)[O-])C(Cl)(Cl)Cl
inactive: [1] 101 % of control | [2] 115 % of control | [3] 100 % of control and 88 % of control | [4] 95 % of control | [5] 100 % of control | [6] 108 % of control | [7] 103 % of control and 91 % of control | [8] 106 % of control | dose: 400.0 mg/kg/injection, schedule: Q01DX001 (ip), vehicle: Klucel (hydroxypropylcellulose) (HPC) 101 % of control | [9] 100 % of control and 103 % of control | [10] 95 % of control

CC1C(C)(C)P(=O)(c2ccccc2)C1(C)C (stereo not given)
inactive: dose: 12.5 mg/kg/injection, schedule: Q04DX003 (ip), vehicle: saline 96 % of control | dose: 25.0 mg/kg/injection, schedule: Q04DX003 (ip), vehicle: saline 96 % of control | dose: 50.0 mg/kg/injection, schedule: Q04DX003 (ip), vehicle: saline 105 % of control

O=S(=O)(N/C(=C(\NS(=O)(=O)c1ccccc1)c1ccccc1)c1ccccc1)c1ccccc1
inactive: [4] 97 % of control | [8] 95 % of control | [10] 92 % of control

Nc1ncnc(N)c1NC(=O)CCCc1ccc([N+](=O)[O-])cc1
inactive: dose: 50.0 mg/kg/injection, schedule: Q01DX001 (ip), vehicle: Klucel (hydroxypropylcellulose) (HPC) 102 % of control | [1] 98 % of control | [5] 94 % of control

NC(=O)NC1c2ccccc2-c2ccccc21
inactive: dose: 50.0 mg/kg/injection, schedule: Q01DX001 (ip), vehicle: carboxymethylcellulose (CMC) 93 % of control | dose: 100.0 mg/kg/injection, schedule: Q01DX001 (ip), vehicle: carboxymethylcellulose (CMC) 93 % of control | dose: 200.0 mg/kg/injection, schedule: Q01DX001 (ip), vehicle: carboxymethylcellulose (CMC) 93 % of control | dose: 400.0 mg/kg/injection, schedule: Q01DX001 (ip), vehicle: carboxymethylcellulose (CMC) 93 % of control

CCCN(CCC)CCCCCCO
inactive: dose: 100.0 mg/kg/injection, schedule: Q04DX003 (ip), vehicle: saline with Tween-80 94 % of control | dose: 200.0 mg/kg/injection, schedule: Q04DX003 (ip), vehicle: saline with Tween-80 96 % of control

CC12OC3C4C(=O)OC1C1OC4(C)C3C(=O)OC12
inactive: dose: 100.0 mg/kg/injection, schedule: Q04DX003 (ip), vehicle: saline 102 % of control | dose: 200.0 mg/kg/injection, schedule: Q04DX003 (ip), vehicle: saline 97 % of control | dose: 400.0 mg/kg/injection, schedule: Q04DX003 (ip), vehicle: saline 95 % of control

CC1COC(C(C)C)O1 (stereo not given)
inactive: dose: 50.0 mg/kg/injection, schedule: Q01DX009 (ip), vehicle: acetone 90 % of control | dose: 100.0 mg/kg/injection, schedule: Q01DX009 (ip), vehicle: acetone 97 % of control | dose: 100.0 mg/kg/injection, schedule: Q04DX003 (ip), vehicle: acetone 95 % of control | dose: 200.0 mg/kg/injection, schedule: Q01DX009 (ip), vehicle: acetone 95 % of control | dose: 200.0 mg/kg/injection, schedule: Q04DX003 (ip), vehicle: acetone 103 % of control | dose: 400.0 mg/kg/injection, schedule: Q04DX003 (ip), vehicle: acetone 90 % of control

C[As](C)(=S)[As](C)(C)=S
inactive: [11] 97 % of control | dose: 12.5 mg/kg/injection, schedule: Q04DX002 (ip), vehicle: Klucel (hydroxypropylcellulose) (HPC) 107 % of control and 88 % of control | [12] 97 % of control | dose: 25.0 mg/kg/injection, schedule: Q04DX002 (ip), vehicle: Klucel (hydroxypropylcellulose) (HPC) 96 % of control and 91 % of control | [13] 87 % of control

[NH-]C(CC(N)=O)C(=O)O.[NH-]C(CC(N)=O)C(=O)O.[Pd+2] (stereo not given)
inactive: dose: 50.0 mg/kg/injection, schedule: Q01DX009 (ip), vehicle: saline with Tween-80 93 % of control | dose: 100.0 mg/kg/injection, schedule: Q01DX009 (ip), vehicle: saline with Tween-80 101 % of control | dose: 100.0 mg/kg/injection, schedule: Q04DX002 (ip), vehicle: saline with Tween-80 93 % of control | dose: 200.0 mg/kg/injection, schedule: Q01DX009 (ip), vehicle: saline with Tween-80 108 % of control | [14] 97 % of control

COc1ccc(/C=C(\CC(=O)O)C(=O)O)cc1OC
inactive: [2] 92 % of control | [4] 96 % of control | [6] 95 % of control | [8] 91 % of control | [15] 95 % of control | [10] 102 % of control

Cc1ccc(C(=O)/C(=C/c2ccccc2)c2ccccc2)cc1
inactive: [2] 101 % of control | [4] 96 % of control | [6] 97 % of control | [8] 93 % of control | [15] 88 % of control | [10] 96 % of control

Cc1cnc(-n2nc(-c3ccccc3)cc2-c2ccccc2)nc1-c1ccccc1O
inactive: [11] 87 % of control | [12] 91 % of control | [13] 97 % of control and 92 % of control

CN(C)CCNc1ccccn1
inactive: dose: 75.0 mg/kg/injection, schedule: Q01DX001 (ip), vehicle: saline 98 % of control | dose: 150.0 mg/kg/injection, schedule: Q01DX001 (ip), vehicle: saline 104 % of control

O=C(c1ccccc1)c1ccsc1C(=O)O
inactive: dose: 6.25 mg/kg/injection, schedule: Q04DX002 (ip), vehicle: saline with Tween-80 94 % of control | dose: 12.5 mg/kg/injection, schedule: Q04DX002 (ip), vehicle: saline with Tween-80 97 % of control | dose: 25.0 mg/kg/injection, schedule: Q04DX002 (ip), vehicle: saline with Tween-80 90 % of control | [14] 101 % of control | dose: 400.0 mg/kg/injection, schedule: Q04DX002 (ip), vehicle: saline with Tween-80 89 % of control

c1cc(N2CCOCC2)ccc1Cc1ccc(N2CCOCC2)cc1
inactive: [2] 102 % of control | [4] 93 % of control | [6] 109 % of control | [8] 101 % of control | [10] 93 % of control

COc1ccccc1C(=O)N/N=C/c1ccc(O)cc1O
inactive: [2] 102 % of control | [6] 96 % of control | [15] 100 % of control

CNC(=S)N(C)c1ccccc1
inactive: [3] 100 % of control | [7] 107 % of control | [9] 104 % of control

O=C(O)c1cc(I)ccc1I
inactive: [2] 93 % of control | [6] 104 % of control | [15] 103 % of control

O=C(Nc1ccc(C2=NCCN2)cc1)Nc1cccc(NC(=S)Nc2ccc(C3=NCCN3)cc2)c1
inactive: dose: 1.88 mg/kg/injection, schedule: Q01DX Z (ip), vehicle: saline 95 % of control | dose: 3.75 mg/kg/injection, schedule: Q01DX Z (ip), vehicle: saline 103 % of control | dose: 7.5 mg/kg/injection, schedule: Q01DX Z (ip), vehicle: saline 113 % of control | dose: 15.0 mg/kg/injection, schedule: Q01DX Z (oral), vehicle: saline 97 % of control | dose: 30.0 mg/kg/injection, schedule: Q01DX Z (oral), vehicle: saline 100 % of control | dose: 60.0 mg/kg/injection, schedule: Q01DX Z (oral), vehicle: saline 97 % of control | dose: 120.0 mg/kg/injection, schedule: Q01DX Z (oral), vehicle: saline 107 % of control
active: dose: 15.0 mg/kg/injection, schedule: Q01DX Z (ip), vehicle: saline 150 % of control | dose: 30.0 mg/kg/injection, schedule: Q01DX Z (ip), vehicle: saline 150 % of control

Cn1c(=O)c2ncn(CC(O)COc3ccccc3)c2n(C)c1=O (stereo not given)
inactive: [4] 102 % of control | [8] 104 % of control | [10] 101 % of control

COC(=O)NS(=O)(=O)c1cccs1
inactive: dose: 100.0 mg/kg/injection, schedule: Q04DX002 (ip), vehicle: other 98 % of control | dose: 200.0 mg/kg/injection, schedule: Q04DX002 (ip), vehicle: other 94 % of control | dose: 400.0 mg/kg/injection, schedule: Q04DX002 (ip), vehicle: other 102 % of control

COc1ccc(/C=C\C(=O)/C=C/c2ccc(OC)cc2)cc1
inactive: [2] 98 % of control | [4] 94 % of control | [6] 98 % of control | [8] 94 % of control | [15] 88 % of control | [10] 100 % of control

COc1ccc(-c2cc(-c3ccccc3)c3ccccc3n2)c(OC)c1OC
inactive: [2] 100 % of control | [6] 90 % of control | [15] 90 % of control
